Assay results: US9586993B2, “CD44v6-derived peptides for treating pancreatic cancer” (AMCURE GMBH, priority 2012, dated 2017)

How the values were obtained:
[1] = tested on: c-Met and Erk phosphorylation; test: HGF-induced c-Met and Erk phosphorylation in HT29 cells (western blot); assay type: cell-based, human
Description: (§1) FIG. 12: A: Activation of Met and signal transduction induced by HGF depends on CD44v6 in L3.6p1 cells. L3.6p1 cells were treated with the human v6 peptide (human v6 14mer) or the rat v6 peptide as control prior to induction with 10 ng/ml HGF. Activation of Met and ERK was determined in western blot. The numbers refer to the fold induction. The experiment was repeated at least 5 times. B: Activation of c-Met and signal transduction induced by HGF depends on CD44v6 HeLa cells. Starved HeLa cells respectively HT29 cells were incubated with the v6 peptide (human v6 14mer) or a control peptide for 10 minutes at 37° C. and then induced with 25 ng/ml of HGF for the indicated time points. Cells were then either lysed and the lysates were subjected to Western Blot analysis for phospho-Met and Met. C: Activation of c-Met and signal transduction induced by HGF depends on CD44v6 in HT29 cells. HGF-induced c-Met and Erk phosphorylation in HT29 was determined as described above using phospho-specific antibodies. […]
(§2) The contribution of CD44v6 to Met signaling in the human epithelial pancreatic cancer cells L3.6p1 (derived from Colo 357), the cervix carcinoma cells HeLa and the colon cancer cells HT29 were analysed using the CD44v6 peptide (v6 14mer; v6 5mer tested as well, data not shown).

[2] = tested on: ErbB receptors; test: ErbB ligand-induced Erk-kinase phosphorylation in HT29 cells; assay type: cell-based, human; conditions: 100 ng/ml peptide; for inhibition of EGF-dependent Erk phosphorylation: 20 ng/ml EGF
Description: (§3) Serum-starved HT29 cells were pre-incubated for 5 min with 100 ng/ml of a CD44v6-specific peptide (human v6 14mer) or a control peptide. Afterwards the cells were induced with 20 ng/ml of various ErbB ligands as indicated. The cell lysates were resolved by SDS-PAGE. Western-blotting was used to detect ErbB ligands-induced Erk-kinase phosphorylation.
as §3, with “of” for “of a”, “(pep1=14mer, pep2=5mer)” for “(human v6 14mer)”, “EGF or TGFα and lysed.” for “various ErbB ligands as indicated.”, “EGF and TGFα induced” for “ErbB ligands-induced”
For this purpose HT29 cells were serum-starved for 24 hours and pre-treated with the v6-specific or a control peptide. They were then induced with the indicated ErbB ligands. Erk-kinase phosphorylation was used as a read-out for receptor activation. All ligands could activate the Erk-kinase.

[3] = tested on: L3.6p1 pancreatic carcinoma cells; test: Human orthotopic model, L3.6p1 cells in the pancreas of nude mice; assay type: in vivo, mouse; conditions: for outgrowth / size of the primary tumor: 20 μg per injection i.p. three times per week for three weeks
Description: In the case of the human orthotopic model, L3.6p1 pancreatic carcinoma cells (passage 24-26) were suspended in Hank's balanced salt solution (Invitrogen, Karlsruhe, Germany) after trypsinization. The cells were injected orthotopically in the pancreas of male nude mice as described (Bruns C J et al. (1999) Neoplasia 1(1):50-62). Two groups of 15 mice each were injected i.p. 7 days later with either the human v6 peptide respectively rat control peptide (20 μg). For all experiments described and depicted herein either the rat 14mer control peptide or the human 14mer peptide were used. All experiments were then repeated with the rat 5mer control peptide or the human 5mer peptide (N-R-W-H-E, SEQ ID NO: 2). […] The injection was repeated three times per week for 21 days. Two days after the last treatment the animals were killed.
7 μm thick paraffin sections were deparaffinized and rehydrated. For P-Met staining antigen unmasking was achieved by boiling the slides in 1 mM EDTA pH 8.0 followed by incubation for 15 minutes at a sub-boiling temperature, for CD31 staining the sections were treated with Proteinase K (8 μg/ml) for 10 min at 37° C. For immunofluorescence staining of P-Met, unspecific binding was blocked with 5% goat serum (DAKO, Glostrup, Denmark) (diluted in 1×PBS/0.3% Triton X-100) for 60 minutes. In the case of immunohistochemistry, endogenous peroxidases were at first blocked with 3% H2O2 in PBS followed by incubation with biotin blocking system (Dako, Glostrup, Denmark) and then unspecific binding was inhibited by incubation with 5% FCS in PBS. The sections were incubated with the P-Met antibody (D26, dilution 1:50 in 1×PBS/1% BSA/0.3% Triton X-100), Met antibody (C-28, dilution 1:50), GFP antibody (sc-101525, dilution 1:50) or antibody (5 μg/ml) over night or VFF18 (5 μg/ml) o/n at 4° C. After washing in PBS the sections were incubated with Alexa Fluor R 546 goat anti-rabbit (in case of immunofluorescence P-Met and Met staining, dilution 1:500) or a biotinylated secondary antibody (for immunohistochemical stainings rabbit anti-rat antibody for VFF18 and CD31, goat anti-rabbit for P-Met, cleaved Caspase-3 and cleaved Caspase-8 and rabbit anti-mouse for GFP, dilution 1:500) for 45 minutes. For DAB (3,3′-diaminobenzidine) staining the sections were treated with a streptavidin-peroxidase conjugate (Dako, Glostrup, Denmark) and developed with DAB substrate system (3,3′-diaminobenzidine; Biozol, Eching, Germany) For immunofluorescence DAPI was used for nuclear staining.
The three CD44v6 specific compounds (v6 5mer, PEG840-v6 5mer and PEG2000-v6 5mer of human origin) and a control peptide were applied in three concentrations (2 μg, 20 μg, 200 μg per injection) three times per week i.p. for 4 weeks. One week before start of the treatment the L3.6p1 tumor cells were orthotopically implanted into nude mice.
Animals were implanted orthotopically with L3.6p1 cells. Tumor growth was allowed for one week before the treatment with the linear v6 14mer, the cyclic v6 8mer as well as the control peptide (rat v6 14mer) was started. All peptides were injected three times per week at a concentration of 0.2, 2 and 10 μg per injection for 3 weeks. At the end of the treatment animals were sacrificed.
A comparison of different CD44v6 peptide derivatives was performed in animals bearing a orthotopic L3.6p1 tumor. 10 groups of 5 animals each received a dose of 20 μg peptide per injection three times per week for 3 weeks with the compounds listed in Table 4. Three weeks after starting the treatment the animals were sacrificed and analyzed for macroscopic metastases and tumor volume.

[4] = tested on: Met; test: HGF-induced Met activation in HeLa cells (western blot); assay type: cell-based, human; conditions: HGF 25 ng/ml, peptide 10 minutes before induction
Description: as §1, §2

[5] = tested on: Erk phosphorylation; test: EGF- and TGFα-induced Erk phosphorylation in MCF7 cells; assay type: cell-based, human

“KEQWFGNRWHEGYR [human 14mer, human CD44v6 14mer peptide]” was tested, and the “inhibition of HGF-induced activation of Met and Erk” value [1] was “able to prevent activation of Met and of its downstream target Erk”, the “inhibition of EGF-dependent Erk phosphorylation” value ([2]; listed as human v6 14mer) was “inhibited” and the “inhibition of EGF-dependent Erk phosphorylation” value ([2]; listed as pep1) was “can be blocked”. For the same sequence, the “inhibition of ER-dependent Erk phosphorylation” value ([2]; 20 ng/ml ER) was “inhibited”, the “inhibition of ErbB receptor induction via TGF-α, BC, Her, HB-EGF or AR (Erk phosphorylation)” value ([2]; 20 ng/ml ligand) was “completely independent of CD44v6” and the “metastasis formation (liver)” value ([3]; 0.2 μg per injection three times per week for 3 weeks) was “showed liver metastases but the average number of metastases per animal was reduced”. For the same sequence, the “metastasis formation (liver)” value ([3]; 2 μg per injection i.p. three times per week) was “showed liver metastases but the average number of metastases per animal was reduced”, the “metastasis formation (liver)” value ([3]; 10 μg per injection three times per week for 3 weeks) was “complete inhibition of metastatic spreading” and the “tumor angiogenesis (vessel number and vessel size, CD31 staining)” value ([3]; 20 μg i.p. three times per week) was “decreased angiogenesis”. For the same sequence, the “Met activation in the tumor (immunofluorescence for phospho-Met and Met)” value ([3]; 20 μg i.p. three times per week for three weeks) was “completely repressed Met activation”, the “outgrowth / size of the primary tumor” value ([3]; start one week after implantation, listed as CD44v6 14mer) was “significant reduction in tumor growth” and the “outgrowth / size of the primary tumor” value ([3]; start one week after implantation, listed as human v6 peptide) was “strongly repressed”. The “outgrowth / size of the primary tumor” value ([3]; start one week after implantation, listed as v6 14mer) was “strongest reduction of tumor size”, the “metastasis formation (liver)” value ([3]; 20 μg per injection i.p. three times per week, start one week after implantation) was “complete inhibition of metastasis” and the “metastasis formation (liver)” value ([3]; 20 μg per injection i.p. three times per week, start one week after implantation, listed as human-specific peptide) was “completely inhibited metastasis formation within the liver”. The “inhibition of HGF-induced activation of Met and Erk” value [4] was “able to prevent activation of Met and of its downstream target Erk”, the “Erk phosphorylation upon EGF treatment” value [5] was “blocking of Erk phosphorylation” and the “Erk phosphorylation upon TGFα induction” value [5] was “not upon TGFα induction”.
